Source: paper PMC6060094, “Structural determinants of the catalytic mechanism of Plasmodium CCT, a key enzyme of malaria lipid biosynthesis” (Scientific Reports, 2018)

Assays:
PfCCT(581–775) = target: T1, PfCCT(581–775) (Plasmodium falciparum, UniProt P49587, DEL194-211); experiment: Saturation Transfer Difference NMR (STD-NMR) ligand binding; conditions: ligand 4 mM; 50 µM PfCCT(581-775), 283 K
T1 construct: The PfCCT(581–775) construct was obtained using previously described PfCCT(528–795); 6xHis (TEV-cleavable) (N, cleaved yes); made in house; host or cells: E. coli BL21 (DE3)
Experimental: In order to provide structural insights into the mechanism of action of PfCCT, we set out to crystallize the constitutively active C-terminal catalytic domain of PfCCT. Several constructs were tested and our attempts were successful only in case of PfCCT(581–775) that corresponds to the exact region visible in the crystal structure of RnCCT (PDB: 3HL4)[20] (Fig. 1a). […] (Table 1 and Supplementary Fig. S1). We further assessed the functionality of PfCCT(581–775) by characterizing its substrate and product binding ability. […] Saturation Transfer Difference Nuclear Magnetic Resonance (STD-NMR) experiments indicated STD signal of CTP, ChoP and CDPCho bound to PfCCT(581–775) at 1 mM, 4 mM and 1 mM concentrations, respectively (Supplementary Fig. S1). This latter result is consistent with previously observed unusually low ChoP affinity of PfCCT[16]. We concluded that PfCCT(581–775) is compatible with substrate and product recognition and may be amenable to structural studies provided that its compromised enzymatic function is taken into account in structure-based interpretations. It is likely that the drop of PfCCT(581–775) enzyme activity is due to the elimination of the C-terminal flanking part as similarly located truncations in the RnCCT catalytic domain also led to severe loss of activity[28],[29]. […]
Kinetic data are fitted with the Michaelis–Menten equation. […] Values of the measured kinetic and thermodynamic parameters and their errors […]
(black) of 50 µM PfCCT(581-775) in 20 mM Tris/HCl pH 7.5, 150 mM NaCl and 2 mM EtSH are shown in presence of c) 1 mM CTP, d) 4 mM ChoP and e) 1 mM CDPCho. […] The 1D 1H STD-NMR spectra were recorded on a Bruker 500 MHz instrument at 283 K with 256 scans and selective saturation of protein resonances at 0.922 ppm using a series of Gaussian shaped pulses (20 ms, 1 ms delay between the pulses). […] All 1D 1H NMR spectra were recorded […]

PfCCT(528–795) T761A = experiment: Continuous coupled colorimetric enzyme activity assay (PPase/PNP/MESG); type: biochemical, Plasmodium falciparum; conditions: ChoP varied 0.5–20 mM, CTP fixed 1 mM; read-out: KM,ChoP
Experimental: (§1) Enzyme activity measurements were performed as described previously, using a continuous coupled colorimetric assay with pyrophosphatase (PPase), purine nucleoside phosphorylase (PNP) auxiliary enzymes and the auxiliary substrate 7-methyl-6-thioguanosine (MESG)[16],[30],[39]. For CTP substrate titrations, CTP concentration was varied between 100 μM and 2 mM while ChoP concentration was kept constant at 5 mM. For ChoP titrations, ChoP concentration was varied between 0.5 mM and 20 mM while CTP concentration was kept constant at 1 mM. Initial velocities were calculated from the first 10% of the progress curves using phosphate calibration as reference. Due to the low activity of PfCCT(581–775) and PfCCT(528–795) T761A, T762A variants, the enzyme was used at 10 μM concentration and the slope of the absorbance change was determined after monitoring the reaction for 20 minutes. For measurements with PfCCT(528–795) K663A the following reagent concentrations were used in the enzyme assay: [PPase] = 0.17 U·ml^−1, [PNP] = 1.25 U·ml^−1, [MESG] = 0.1 mM, [Mg^2+] = 5 mM and [PfCCT(528–795) K663A] = 10 μM, to yield adequate signal-to-noise ratio (S/N > 10). Three independent experiments were performed for CTP and ChoP kinetic titrations of PfCCT(528–795) K663A. Global fit of CTP and ChoP kinetic titrations for each enzyme variant was performed in Origin 8.6 using Michaelis–Menten equation, to yield a single kcat parameter.

PfCCT(528–795) T762A = experiment: as above; type: biochemical, Plasmodium falciparum; conditions: ChoP varied 0.5–20 mM, CTP fixed 1 mM; read-out: KM,ChoP
Experimental: as §1

PfCCT(528–795) = target: T2, PfCCT(528–795) (Plasmodium falciparum, UniProt P49587, DEL194-211); parameters: method as in Nagy et al.[16]; conditions: ref Nagy et al.[16]; read-out: KM,ChoP; cited from earlier work
T2 construct: previously described PfCCT(528–795) lacking the lysine-rich Plasmodium specific loop (720–737); His-tag; made in house

[1] = target: PfCCT(528–795) Y626F/Q636A (Plasmodium falciparum, UniProt Q8IEE9, DEL720-737/Q636A/Y626F); experiment: Continuous coupled colorimetric enzyme activity assay (PPase/PNP/MESG); type: biochemical; conditions: ChoP varied 0.5–20 mM, CTP fixed 1 mM; read-out: KM,ChoP
PfCCT(528–795) Y626F/Q636A, sequence (Q8IEE9 528-795, stated change not applied): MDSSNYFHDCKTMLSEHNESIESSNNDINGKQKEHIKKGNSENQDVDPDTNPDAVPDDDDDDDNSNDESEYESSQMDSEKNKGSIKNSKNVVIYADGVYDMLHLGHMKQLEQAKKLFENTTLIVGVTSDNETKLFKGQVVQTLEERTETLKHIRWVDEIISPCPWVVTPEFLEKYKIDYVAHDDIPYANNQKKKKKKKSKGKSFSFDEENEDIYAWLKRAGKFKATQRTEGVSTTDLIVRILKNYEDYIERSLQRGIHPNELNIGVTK
Experimental: as §1

Question: Which results are given for `C[N+](C)(C)CCOP(=O)(O)O` [ChoP, phosphocholine]?
Answer: STD-NMR signal of ligand bound to enzyme (PfCCT(581–775)): STD signal; Km (PfCCT(528–795) T761A): 3700 µM; Km (PfCCT(528–795) T762A): 2100 µM; Km (PfCCT(528–795)): 1950 µM; Km [1]: 1600 µM
